According to patent US20070224287A1, “Methods of Modulating Inflammatory Reactions by Modulating Xanthine Oxidoreductase Activity” (priority 2003, published 2007):
One block for each molecule: values may come before it.

How the values were obtained:
[1] = target: T1, XOR (Rattus norvegicus, UniProt P22985); test: Xanthine oxidoreductase assay, lung tissue extracts of cytokine insufflated rats; type: in vivo; conditions: for induction of total lung XOR activity: 24 hours following intratracheal cytokine insufflation (50 ng per rat) compared to saline alone (FIG. 1a); for lung O-form XOR content: lungs 24 h after insufflation, untreated 23%, saline 42% (FIG. 1d)
T1 construct: Total XOR activity in lung and liver tissue was determined using whole tissue protein extracts; from tissue; host or cells: lung (and liver) of Sprague-Dawley rats
Description: (§1) Intratracheal cytokine insufflation.
(§2) Xanthine oxidoreductase assay. Total XOR activity in lung and liver tissue was determined using whole tissue protein extracts. Briefly, tissues that had been perfused blood free were placed into liquid N2 and stored at −80° C. prior to generating enzyme extracts. Enzyme extracts were prepared by placing frozen specimens in extract buffer (100 mM K-Phosphate, pH 7.8, 1 mM EDTA, 1 mM PMSF). Tissues were thawed in extract buffer on ice and minced. Minced tissues were broken in a rotating dounce using exactly three strokes of the pestle. Tissue homogenates were then centrifuged at 15,000×g at 4° C. for 30 min. Clarified extracts were desalted on 2 cm×20 cm Sephadex G25 columns to remove low molecular weight substances that potentially interfere with enzyme activity (48), and 3 ml of the flow through front were collected. Allopurinol inhibitable XOR activity was determined spectroscopically by measuring uric acid formation from xanthine at 290 nm. The stability of uric acid added to the flow through fraction was determined in the presence and absence of the uricase inhibitor, oxonic acid (OA). […] Evaluation of D-form XOR and O-form XOR was determined by measuring enzymatic activity in the presence and absence of NAD+(49).

[2] = target: T1, XOR; test: XOR activity in BALF cells / adherent MNP of cytokine insufflated rats; conditions: in vivo
Description: as §1
as §2, with “Clarified extracts were desalted on 2 cm×20 cm Sephadex G25 columns to remove low molecular weight substances that potentially interfere with enzyme activity (48), and 3 ml of the flow through front were collected.” left out
Neutrophils and MNP were recovered from the BALF 24 hours following IL-1 and IFN-γ insufflation and purified on Percoll gradients. […] Although XOR was induced over a 24 hour period in the infiltrating MNP recovered from the lungs of IL-1 and IFN-γ insufflated rats, neither XOR activity or antigen was detected in circulating rat monocytes (not shown). […]

[3] = test system: IL-1 and IFN-γ insufflated rats; test: Differential and total inflammatory cell counts in BALF after cytokine insufflation; type: in vivo, rat; conditions: for accumulation of inflammatory cells (BALF cell numbers): diet before IL-1 and IFN-γ insufflation, 24 hours later, allopurinol 50 mg/Kg for seven days (FIG. 4c); for macrophages in BALF (differential analysis) / neutrophils in BALF (differential analysis): 24 hours following insufflation
Source text: as §1

[4] = test system: alveolar cells; test: TUNEL staining and morphometric analysis; type: in vivo, rat; conditions: prior feeding with diet, IL-1 and IFN-γ insufflation 24 h before (FIG. 4f,g)
Description: TUNEL staining and morphometric analysis. The TUNEL assay was used to detect apoptotic cells in fixed lung sections. After fixation with 4% buffered formalin, lung tissue sections were embedded in paraffin, sectioned at […], and mounted on glass slides. Slides were de-paraffinized, rehydrated for 10 min in PBS, and treated with 0.002% proteinase K (Sigma) in distilled water for 5 to 15 min at room temperature. Terminal deoxynucleotidyl transferase (TdT) was used for labeling of DNA nicks using the TACS kit (Trevigen, Inc., Gaithersburg, Md.). Counterstaining with DAPI was done to stain nuclear DNA and with Rhodamine coupled wheat germ agglutinin (WGA, Molecular Probes, Eugene, Oreg.) to stain the structural architecture. TUNEL positive cell staining appeared as green fluorescence in the nuclei of clearly defined alveolar cells. Background nuclear staining appeared as blue while the tissue architecture was red.

[5] = test system: caspase-3; test: Activated caspase-3 detection in lung sections; type: in vivo, rat; conditions: prior feeding with diet, IL-1 and IFN-γ insufflation 24 hours before (FIG. 4h)
Description: Activated caspase-3 detection. Detection of the cleaved, mature, activated caspase-3 was performed on paraffin-embedded sections using the Cell Signaling Technology, Inc (Beverly, Mass.) protocol. First, paraffin-embedded slides were deparaffinized and rehydrated. Incubation with 1% H2O2 for 10 min blocked endogenous peroxidase activity. For antigen unmasking, the tissue sections were microwaved in 10 mM sodium citrate buffer (pH 6.0) for 10 min. Next, the sections were blocked in 5% goat serum for 1 hr at room temperature. Slides were then incubated at 4° C. overnight with caspase-3 antibody specific for the cleaved, mature, form of caspase-3 diluted 1:200 in phosphate buffered saline (Asp-175; Cell Signaling Technology, Inc). This was followed by a 30 min incubation with a 1:200 dilution of goat anti-rabbit antibody (PK-6101; Vector Laboratories, Burlingame, Calif.). A subsequent 30 min incubation with VectaStain Elite ABC reagent (PK-6101; Vector Laboratories) ensued. This reaction was followed by the addition of the DAB substrate kit for peroxidase (SK-4100; Vector Labs). The slides were finally counterstained with hematoxylin (H-3401; Vector Labs), dehydrated and mounted. Caspase-3 positive cells were quantitated by counting the percent positive alveolar cells per field under 100× magnification.

[6] = test system: XOR; conditions: cited from earlier work
[7] = test system: IL-1 and IFN-γ insufflated rats; test: Lung histology (H&E) after cytokine insufflation; conditions: diet before IL-1 and IFN-γ insufflation, 24 hours later (FIG. 4d)
[8] = target: T2, O-form XOR (Rattus norvegicus, UniProt P22985); test: DTT reduction of O-form XOR in soluble lung protein extracts; type: biochemical; conditions: 5 nM DTT at 37° C. for one hour, re-chromatographed on sephadex G25 (FIG. 1e)
T2 construct: Total XOR activity in lung and liver tissue was determined using whole tissue protein extracts; from tissue; host or cells: lung (and liver) of Sprague-Dawley rats
Description: FIGS. 1A-E. Lung XOR induction following cytokine insufflation. Total lung and liver XOR activity was quantitated in the presence of NAD^+ in soluble desalted protein extracts from rats that were insufflated 24h before with saline, IL-1, IFN-γ or IL-1 and IFN-γ. […] IL-1 and IFN-γ insufflated rats had increased (**, p<0.02) lung (A), but not (p>0.05) liver (B), XOR activity compared to rats insufflated with saline, IL-1 (*, p<0.05), or IFN-γp>0.05). (C) Western immunoblot analysis of lung XOR from cytokine insufflated rats. Antibody to rat β-actin was used to control for gel loading. Gels were scanned with a Perkin-Elmer phosphoimager for semi-quantitation. Data are shown for two rats in each group. […] (D) The percentage of O-form XOR was quantitated in soluble protein extracts of cytokine insufflated rat lungs. […] Rats insufflated with IL-1 and IFN-γ had increased (*, p<0.05) lung O-form XOR activity compared to rats insufflated with saline, IL-1 or IFN-γ. […]
We quantitated the levels of O-form XOR in untreated or cytokine insufflated rat lungs. […] Soluble lung protein extracts from insufflated rats were exposed to 5 nM DTT at 37° C. for one hour and were re-chromatographed on sephadex G25 after which D-form and O-form content was re-measured. […]

[9] = target: T3, MNP XOR (Rattus norvegicus, UniProt P22985); test: Cell transfer experiment: BALF cells treated in vitro and insufflated into control rats; type: in vivo; conditions: BALF cells exposed 15 min to 150 μM allopurinol in vitro, 2×10^6 cells insufflated into control rats, BALF 24 hours later, p<0.05 vs control cells (FIG. 5c)
T3 construct: endogenous in cells; host or cells: BALF cells / adherent mononuclear phagocytes from IL-1 and IFN-gamma insufflated Sprague-Dawley rats
Description: A lung inflammatory response was induced in rats with IL-1 and IFN-γ insufflation. After 8 hours, cells from BALF were recovered from each rat in PBS, pooled, and quantitated. Cells were then divided into two equivalent fractions and exposed to 1 mM KOH or 1 mM KOH with 150 μM allopurinol in vitro. The neutral pH of the PBS and cell mixture was unchanged by adding 1 mM KOH. After 15 min, the cells were washed and resuspended in PBS. Subsequently, 2×10^6 of control or allopurinol treated cells were insufflated into control rats. 24 hours after cell insufflation, BALF cells were recovered from these rats, Wright's stained and quantitated. […] Data are the mean and standard error of 6 rats in each group.
To determine whether XOR induction in MNP could contribute to lung inflammation, we performed a cell transfer experiment. We induced a pulmonary inflammatory response in rats with IL-1 and IFN-γ insufflation, obtained these cells by bronchoalveolar lavage 8 hours later, and then treated these cells with either allopurinol or the vehicle for allopurinol in vitro. After a 15 min exposure to allopurinol or the vehicle, the cells were washed, resuspended in PBS, and then insufflated into control rats. Subsequently, cells were harvested from the BALF of these control rats, stained, and quantitated.

[10] = test system: Id-2; test: Western immunoblot of Id-2 from BALF cells; type: in vivo, rat; conditions: 24 hours following cytokine insufflation, allopurinol vs control fed rats
Description: Western immunoblot analysis of the differential inhibitor, Id-2, from BALF cells obtained 24 hours following cytokine insufflation in allopurinol (A) or control (C) fed rats.

[11] = test system: patients with chronic heart failure (CHF), cardiomyopathy, or undergoing heart surgery; conditions: cited from earlier work
[12] = test system: vascular endothelial function; conditions: Type 1 and Type 2 diabetes in humans; cited from earlier work
[13] = test system: superoxide generation; conditions: streptozotocin induced diabetes in mice; cited from earlier work
[14] = test system: pancreatic fibrosis; conditions: rats treated with diethyldithiocarbamate; cited from earlier work
[15] = test system: pancreatitis and vascular injury; conditions: L-arginine induced pancreatic inflammation in rats; cited from earlier work
[16] = test system: colonic leukocyte-chemokine expression and leukocyte accumulation; conditions: mice; cited from earlier work
[17] = test system: leukocyte-chemokine expression and leukocyte accumulation; conditions: endotoxemic model of liver injury; cited from earlier work
[18] = test system: acute gastric mucosal lesions; conditions: rats; cited from earlier work
[19] = test system: PMN accumulation in the eye; conditions: uveitis, even after the onset of disease; cited from earlier work
[20] = target: T4, XOR (Homo sapiens, UniProt P47989); conditions: COPD; cited from earlier work
T4 construct: host or cells: bronchoalveolar lavage fluid of COPD patients

[21] = test system: sarcoidosis; conditions: cited from earlier work
[22] = test system: endothelial injury in the lungs (and gut); conditions: heavy smokers and rats subjected to heavy smoking conditions; cited from earlier work
[23] = test system: vascular injury; conditions: mice, hemorrhagic shock or LPS injection, prior inhibition of XOR; cited from earlier work
[24] = test system: NADPH oxidase; conditions: even at relatively high doses; cited from earlier work

T1 sequence (P22985 whole entry): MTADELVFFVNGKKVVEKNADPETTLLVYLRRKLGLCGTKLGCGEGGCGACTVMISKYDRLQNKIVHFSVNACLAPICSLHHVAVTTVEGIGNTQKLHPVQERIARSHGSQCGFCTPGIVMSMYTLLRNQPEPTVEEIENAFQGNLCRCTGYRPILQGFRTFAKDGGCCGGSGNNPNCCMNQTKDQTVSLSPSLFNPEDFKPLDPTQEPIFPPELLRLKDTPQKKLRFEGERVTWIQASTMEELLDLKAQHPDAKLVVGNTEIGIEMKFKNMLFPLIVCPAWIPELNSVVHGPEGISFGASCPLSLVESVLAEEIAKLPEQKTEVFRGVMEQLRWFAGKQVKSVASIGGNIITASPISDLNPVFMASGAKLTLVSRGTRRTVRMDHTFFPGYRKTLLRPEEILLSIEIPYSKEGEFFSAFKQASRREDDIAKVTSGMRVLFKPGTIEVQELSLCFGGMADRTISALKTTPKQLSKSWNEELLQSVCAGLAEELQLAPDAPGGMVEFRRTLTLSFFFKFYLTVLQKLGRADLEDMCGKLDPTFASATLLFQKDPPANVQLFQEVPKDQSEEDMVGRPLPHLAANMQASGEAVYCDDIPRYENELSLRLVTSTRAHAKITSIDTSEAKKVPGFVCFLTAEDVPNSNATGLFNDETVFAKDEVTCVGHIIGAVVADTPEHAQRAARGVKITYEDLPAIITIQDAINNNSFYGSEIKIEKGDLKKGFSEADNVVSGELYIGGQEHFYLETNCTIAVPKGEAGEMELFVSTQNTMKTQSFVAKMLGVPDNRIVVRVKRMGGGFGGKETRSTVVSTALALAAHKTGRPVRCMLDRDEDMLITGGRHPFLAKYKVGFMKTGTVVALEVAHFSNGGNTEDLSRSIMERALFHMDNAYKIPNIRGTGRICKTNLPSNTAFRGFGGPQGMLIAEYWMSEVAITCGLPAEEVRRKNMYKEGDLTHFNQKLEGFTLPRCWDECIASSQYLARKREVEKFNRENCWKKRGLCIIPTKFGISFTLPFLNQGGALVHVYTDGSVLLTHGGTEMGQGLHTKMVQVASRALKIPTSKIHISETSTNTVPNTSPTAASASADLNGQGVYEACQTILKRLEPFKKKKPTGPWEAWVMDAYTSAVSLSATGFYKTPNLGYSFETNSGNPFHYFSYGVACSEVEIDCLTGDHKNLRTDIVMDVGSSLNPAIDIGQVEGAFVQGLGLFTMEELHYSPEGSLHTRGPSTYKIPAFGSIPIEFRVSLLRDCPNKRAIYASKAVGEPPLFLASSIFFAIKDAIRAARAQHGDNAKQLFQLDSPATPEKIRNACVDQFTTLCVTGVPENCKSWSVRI
T2 sequence (P22985 whole entry): as above
T3 sequence (P22985 whole entry): as above
T4 sequence (P47989 whole entry): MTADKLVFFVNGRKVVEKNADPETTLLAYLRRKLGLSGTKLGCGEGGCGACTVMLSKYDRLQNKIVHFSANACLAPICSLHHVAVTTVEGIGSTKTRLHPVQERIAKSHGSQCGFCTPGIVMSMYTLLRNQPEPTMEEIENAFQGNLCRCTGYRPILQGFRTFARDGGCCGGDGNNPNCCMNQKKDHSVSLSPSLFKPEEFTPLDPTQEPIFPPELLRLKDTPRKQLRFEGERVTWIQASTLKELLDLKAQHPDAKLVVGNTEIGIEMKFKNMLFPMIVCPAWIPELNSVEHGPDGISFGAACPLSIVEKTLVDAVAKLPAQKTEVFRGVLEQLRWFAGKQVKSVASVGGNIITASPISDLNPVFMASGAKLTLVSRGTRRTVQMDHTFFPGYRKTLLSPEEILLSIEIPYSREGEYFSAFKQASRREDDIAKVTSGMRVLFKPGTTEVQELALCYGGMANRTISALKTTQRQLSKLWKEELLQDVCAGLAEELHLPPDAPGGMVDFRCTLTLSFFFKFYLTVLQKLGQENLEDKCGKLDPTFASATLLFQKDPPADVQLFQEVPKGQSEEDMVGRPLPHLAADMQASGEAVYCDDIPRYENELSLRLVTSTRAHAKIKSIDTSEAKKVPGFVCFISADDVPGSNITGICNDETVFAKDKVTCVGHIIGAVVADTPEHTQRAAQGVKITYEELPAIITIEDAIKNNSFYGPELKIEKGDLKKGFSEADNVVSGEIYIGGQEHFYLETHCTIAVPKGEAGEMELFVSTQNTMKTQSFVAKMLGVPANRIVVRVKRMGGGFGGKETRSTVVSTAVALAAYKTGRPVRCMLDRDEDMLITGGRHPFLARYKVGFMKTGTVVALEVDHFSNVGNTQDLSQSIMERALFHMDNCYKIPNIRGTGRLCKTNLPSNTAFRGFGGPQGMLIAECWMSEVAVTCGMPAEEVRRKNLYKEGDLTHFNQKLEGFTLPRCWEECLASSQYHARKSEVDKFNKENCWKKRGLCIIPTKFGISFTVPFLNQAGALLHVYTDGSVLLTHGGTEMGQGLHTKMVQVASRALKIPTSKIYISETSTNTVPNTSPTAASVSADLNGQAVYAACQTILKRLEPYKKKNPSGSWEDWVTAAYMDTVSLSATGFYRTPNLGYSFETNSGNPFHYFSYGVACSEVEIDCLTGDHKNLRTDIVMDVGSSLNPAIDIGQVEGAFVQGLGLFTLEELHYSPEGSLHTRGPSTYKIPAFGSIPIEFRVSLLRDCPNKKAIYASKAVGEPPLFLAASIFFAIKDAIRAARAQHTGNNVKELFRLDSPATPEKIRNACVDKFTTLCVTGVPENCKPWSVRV

Molecule: [W] [tungsten]
XOR activity in the lungs ([1]; tungsten diet before IL-1 and IFN-γ insufflation, 24 hours later, vs control diet (FIG. 4a)): decreased
XOR activity in the BALF cells (MNP XOR activity) [2]: decreased
accumulation of inflammatory cells (BALF cell numbers) [3]: reduced
development of alveolar apoptosis (TUNEL positive alveolar nuclei) [4]: attenuated
activation of caspase-3 in cytokine insufflated rat lungs [5]: blocked
mononuclear cell infiltration and rejection signs ([6]; day 9 post-transplantation): significantly ameliorated
NADPH-oxidase activity ([6]; renal allografts): without any effect
XOR activity and ROS production ([6]; renal allografts): pronounced reduction
histologic evidence of airway and perivascular inflammation [7]: attenuated

O-form XOR after DTT reduction [8]: approximately 23 % of the total XOR
Molecule: O[C@H](CS)[C@H](O)CS (racemic) [DTT, dithiothreitol]

Molecule: Oc1ncnc2[nH]ncc12 [allopurinol]
accumulation of inflammatory cells (BALF cell numbers) [3]: reduced
development of alveolar apoptosis (TUNEL positive alveolar nuclei) [4]: attenuated
activation of caspase-3 in cytokine insufflated rat lungs [5]: blocked
recovery of neutrophils in the BALF after insufflation of treated BALF cells [9]: attenuated
Id-2 from BALF cells (Western immunoblot) [10]: XOR dependent regulations of MNP Id-2 levels
effect in patients with chronic heart failure, cardiomyopathy, or undergoing heart surgery [11]: cardio-protective effect
vascular endothelial function [12]: protective
superoxide generation [13]: normalized
pancreatic fibrosis [14]: blocked
evidence of pancreatitis and vascular injury [15]: blocked
I/R induced colonic leukocyte-chemokine expression and leukocyte accumulation [16]: markedly reduced
leukocyte-chemokine expression and leukocyte accumulation [17]: blocked
markers of leukocyte infiltration in the gut [18]: decreased
progression of experimentally induced acute gastric mucosal lesions [18]: blocked
capacity to reduce PMN accumulation in the eye [19]: as effective as steroid treatment
XOR and evidence of XOR derived oxidative stress [20]: reduced
pulmonary sarcoidosis attributed to BCG vaccination ([21]; human): completely regressed
sarcoidosis outcome ([21]; patients with sarcoidosis): induce remission
endothelial injury in the lungs (and gut) [22]: reduce
evidence of vascular injury [23]: dramatically attenuated
scavenging of ROS generated from the NADPH oxidase [24]: fails to scavenge
histologic evidence of airway and perivascular inflammation [7]: attenuated

induction of total lung XOR activity [1]: approximate doubling
lung O-form XOR content [1]: 57 % of the total XOR activity
B1: Recombinant rat interleukin-1-α (protein, UniProt P16598 115-270, looked up)
Interleukin-1 alpha: SAPHSFQNNLRYKLIRIVKQEFIMNDSLNQNIYVDMDRIHLKAASLNDLQLEVKFDMYAYSSGGDDSKYPVTLKVSNTQLFVSAQGEDKPVLLKEIPETPKLITGSETDLIFFWEKINSKNYFTSAAFPELLIATKEQSQVHLARGLPSMIDFQIS
notes: recombinant rat cytokine insufflated intratracheally to induce lung inflammation
macrophages in BALF (differential analysis) [3]: ~20%
neutrophils in BALF (differential analysis) [3]: approximately 80%

induction of total lung XOR activity [1]: negligible response
lung O-form XOR content [1]: 52 % of the total XOR activity
B2: interferon-y (protein, UniProt P01581 23-156, looked up)
Interferon gamma: QGTLIESLESLKNYFNSSSMDAMEGKSLLLDIWRNWQKDGNTKILESQIISFYLRLFEVLKDNQAISNNISVIESHLITNFFSNSKAKKDAFMSIAKFEVNNPQIQHKAVNELIRVIHQLSPESSLRKRKRSRC
notes: as for B1
macrophages in BALF (differential analysis) [3]: ~20%
neutrophils in BALF (differential analysis) [3]: approximately 80%
